SMILES strings stand for the structures.

Pest or weed control and plant injury data for 7 molecules are collected here from patent US10375956B2, “Herbicidally active 2-(substituted-phenyl)-cyclopentane-1,3-dione compounds and derivatives thereof” (Syngenta Limited, priority 2013, dated 2019).

Type in all cases: in vivo
The subject of assay [1] is Alopecurus myosuroides (ALOMY). As to the kind of experiment: Test 1 glasshouse assay, pre-emergence herbicidal activity. The settings on record: 312 h, visual evaluation after 13 days, read-out: Percentage phytotoxicity ALOMY. As for the experimental part: (§1) Seeds of a variety of test species are sown in standard soil in pots. After cultivation for one day (pre-emergence) or after 8 days cultivation (post-emergence) under controlled conditions in a glasshouse (at 24/16° C., day/night; 14 hours light; 65% humidity), the plants are sprayed with an aqueous spray solution derived from the formulation of the “technical” (i.e. unformulated) active ingredient in acetone/water (50:50) solution containing 0.5% Tween 20 (polyoxyethylene sorbitan monolaurate, CAS Registry Number 9005-64-5). The test plants are then grown on under controlled conditions in a glasshouse (at 24/16° C., day/night; 14 hours light; 65% humidity) and watered twice daily. After 13 days for pre- or post-emergence, the test is evaluated visually, and an assessed percentage phytotoxicity score is given for each herbicidal application on each plant species (where 100%=total damage to plant; 0%=no damage to plant).
(§2) Test plants include the following: Abutilon theophrasti (ABUTH), Amaranthus retroflexus (AMARE): these are dicotyledonous (broadleaved) weeds. Setaria faberi (SETFA), Alopecurus myosuroides (ALOMY), Echinochloa crus-galli (ECHCG): these are grassy monocotyledonous weeds. Also: Zea mays (ZEAMX, corn/maize), which can be a grassy weed (“volunteer” corn) in some circumstances.

Assay [2] has as its system Echinochloa crus-galli (ECHCG). Described as above. The settings on record: 312 h, visual evaluation after 13 days, read-out: Percentage phytotoxicity ECHCG. The procedure: as §1, §2
For the next assay, the system named is Lolium perenne (LOLPE). As to the kind of experiment: Test 2 glasshouse assay (IF50 formulation, X-77), pre-emergence herbicidal activity. The settings on record: 480 h, 250 g/ha, 20DAA, read-out: Percentage phytotoxicity LOLPE. The procedure: (§3) Seeds of a variety of monocotyledonous and dicotyledonous test plants are sown in standard soil in pots. The plants are cultivated for one day (for pre-emergence) or for about 12 days (for post-emergence) under controlled conditions in a glasshouse (warm climate species at 24/18° C., cool climate species at 20/16° C., both at day/night; 16 hours light; 65% humidity).
(§4) An “instant formulation”, known as the “IF50”, containing 50 g/liter (i.e. 5% w/v) of the “technical” (i.e. unformulated) active ingredient is prepared by dissolving the active ingredient in a mixture of organic solvents and emulsifier, details of which are provided in the Table below. This IF50 is then mixed with a small, variable amount of acetone to aid dissolution, before addition of a 0.2% v/v aqueous solution of the adjuvant X-77 (which is a mixture of alkyl aryl polyoxyethylene glycols and free fatty acids in isopropanol, CAS Registry number 11097-66-8), as the aqueous diluent, to form an aqueous spray solution which contains a predetermined concentration of the active ingredient (which varies depending on the application rate of the active ingredient to the plants) and 0.2% v/v of the adjuvant X-77. This aqueous spray solution is then sprayed onto the plants, after one day's cultivation (for pre-emergence), or after about 12 days' cultivation (range=10-13 days) (for post-emergence).
(§5) The test plants are then grown on, in a glasshouse (greenhouse) under controlled conditions (warm climate species at 24/18° C., cool climate species at 20/16° C., both at day/night; 16 hours light; 65% humidity) and are watered twice daily. 15 days after application of the test herbicide (15DAA) (for post-emergence), and 20 days after application of the test herbicide (20DAA) (for pre-emergence), the test plants are evaluated visually, and an assessed percentage phytotoxicity score is given for each herbicidal application on each plant species (with 100%=total damage to plant; 0%=no damage to plant).
Cool climate (“cool season”) grassy monocotyledonous weeds: Alopecurus myosuroides (ALOMY), Avena fatua (AVEFA), Lolium perenne (LOLPE).

The test system of assay [3] is Beta vulgaris (BEAVA, sugarbeet). Kind of assay: Test 2 glasshouse assay (IF50 formulation, X-77), post-emergence herbicidal activity. The note with it: 360 h, 15 DAA, visual score, read-out: Post-emergence herbicidal activity (percentage phytotoxicity) BEAVA; for plant injury at 125 g/ha: application rate 125 g/ha; for plant injury at 250 g/ha: application rate 250 g/ha. The procedure:
as §3, §4, §5
(§6) Cool climate crop plants: Triticum aestivum (TRZAW, winter wheat), Brassica napus (BRSNN, rape, also called oilseed rape or rapeseed), Beta vulgaris (BEAVA, sugarbeet). Warm climate crop plants: Glycine max (GLXMA, soybean).

The subject of assay [4] is Brassica napus (BRSNN, rape). Described as above. The note with it: 360 h, 15 DAA, visual score, read-out: Post-emergence herbicidal activity (percentage phytotoxicity) BRSNN; for plant injury at 125 g/ha: application rate 125 g/ha; for plant injury at 250 g/ha: application rate 250 g/ha. As for the experimental part: as §3, §4, §5, §6
Assay [5] deals with Glycine max (GLXMA, soybean). Described as above. The settings on record: 360 h, 15 DAA, visual score, read-out: Post-emergence herbicidal activity (percentage phytotoxicity) GLXMA; for plant injury at 125 g/ha: application rate 125 g/ha; for plant injury at 250 g/ha: application rate 250 g/ha. The procedure:
as §3, §4, §5, §6

Assay [6] deals with Triticum aestivum (TRZAW, winter wheat). Described as above. The note with it: 360 h, 15 DAA, visual score, read-out: Post-emergence herbicidal activity (percentage phytotoxicity) TRZAW; for plant injury at 125 g/ha: application rate 125 g/ha; for plant injury at 250 g/ha: application rate 250 g/ha. As for the experimental part:
as §3, §4, §5, §6

For assay [7], the system named is Abutilon theophrasti (ABUTH). As to the kind of experiment: Test 1 glasshouse assay, pre-emergence herbicidal activity. The settings on record: 312 h, visual evaluation after 13 days, read-out: Percentage phytotoxicity ABUTH. The procedure: as §1, §2
The subject of assay [8] is Amaranthus retroflexus (AMARE). The assay is described as above. The note with it: 312 h, visual evaluation after 13 days, read-out: Percentage phytotoxicity AMARE. The procedure: as §1, §2
Another assay relates to Setaria faberi (SETFA). Described as above. The note with it: 312 h, visual evaluation after 13 days, read-out: Percentage phytotoxicity SETFA. The procedure: as §1, §2
Assay [9] concerns Zea mays (ZEAMX, corn/maize). Described as above. The settings on record: 312 h, visual evaluation after 13 days, read-out: Percentage phytotoxicity ZEAMX. As for the experimental part:
as §1, §2

For assay [10], the system named is Abutilon theophrasti (ABUTH). As to the kind of experiment: Test 1 glasshouse assay, post-emergence herbicidal activity. The note with it: 312 h, post-emergence (Example 1B Table 1), after 13 days, read-out: Percentage phytotoxicity ABUTH. As for the experimental part: as §1
(§7) Test plants include the following: Abutilon theophrasti (ABUTH) and Amaranthus retroflexus (AMARE); these are all dicotyledonous (broadleaved) weeds. Setaria faberi (SETFA), Alopecurus myosuroides (ALOMY), and Echinochloa crus-galli (ECHCG); these are all grassy monocotyledonous weeds. Also: Zea mays (ZEAMX, corn/maize), which can be a grassy weed (“volunteer” corn) in some circumstances.

The subject of assay [11] is Amaranthus retroflexus (AMARE). Described as above. The settings on record: 312 h, post-emergence (Example 1B Table 1), after 13 days, read-out: Percentage phytotoxicity AMARE. The procedure: as §1, §7

`C#CCC1CC(=O)C(c2c(C)cc(C)cc2C)C1=O` (stereo not shown) [Compound A23]: the pest or weed control at 250 g/ha (in assay [1]; in [2]; with Lolium perenne (LOLPE)) was 100% each time. In addition, the plant injury at 125 g/ha in assay [3] is 30%; in assay [4] it was 70%; in [5] it was 0%; in assay [6], 20%.
Turning to `C#CCC1CC(=O)C(c2cc(-c3ncc(Cl)cc3F)ccc2C)C1=O` (stereo not shown) [Compound A18], the pest or weed control at 250 g/ha in assay [7] came out at 20%; in assay [1], 60%; in assay [8], 40%; in assay [2] it was 60%; in the assay with Setaria faberi (SETFA) it was 70%; in assay [9], 30%. Besides, the pest or weed control at 250 g/ha in assay [10] and in [11] was 60% in each case. Besides, the pest or weed control at 30 g/ha in assay [10] and in [11] was 0% in each case. The plant injury at 250 g/ha in [3] is 50%; in assay [4] it was 20%; in assay [5], 40%; in assay [6] it was 30%.
Consider `C#CCC1CC(=O)C(c2cc(-c3ncc(Cl)cn3)ccc2C)C1=O` (stereo not shown) [Compound A19], for which the pest or weed control at 250 g/ha in assay [7] is 40%; in assay [1], 60%; in [8], 40%; in assay [2], 50%; in the assay with Setaria faberi (SETFA), 60%; in assay [9], 0%. The pest or weed control at 250 g/ha in [10] is 30%; in assay [11] it was 20%. In addition, the pest or weed control at 30 g/ha in assay [10] and in assay [11] was 0% each time. Besides, the plant injury at 250 g/ha is 0% in assay [3], 10% in [4], 20% in assay [5] and 30% in [6].
For the molecule `C#CCC1CC(=O)C(c2c(F)cc(-c3ccc(F)cc3)cc2OC)C1=O` (stereo not shown) [Compound A20, 2-[2-fluoro-4-(4-fluorophenyl)-6-methoxyphenyl]-4-prop-2-ynylcyclopentane-1,3-dione], the pest or weed control at 250 g/ha came to 70% in assay [7]; 90% in [1]; 70% in [8]; 100% in assay [2]; 100% in the assay on Setaria faberi (SETFA); 100% in assay [9]. Besides, the pest or weed control at 250 g/ha in [10] came out at 60%; in assay [11], 70%. The pest or weed control at 30 g/ha in [10] and in assay [11] was 0% each time.
As to `C#CCC1CC(=O)C(c2c(F)cc(-c3ccc(F)cc3F)cc2OC)C1=O` (stereo not shown) [Compound A21], the pest or weed control at 250 g/ha in assay [7] stood at 10%; in assay [1] it was 80%; in [8], 0%; in assay [2], 90%; with Setaria faberi (SETFA), 90%; in assay [9] it was 100%. For the same molecule, the results for the pest or weed control at 250 g/ha in assay [10] and in assay [11] were 40% and 30%, respectively. The pest or weed control at 30 g/ha in [10] stood at 0%; in assay [11], 10%.
On to `C#CCC1CC(=O)C(c2cc(-c3ccc(Cl)cc3Cl)ccc2C)C1=O` (stereo not shown) [Compound A15], for which the pest or weed control at 250 g/ha in [10] amounted to 60%; in assay [11], 40%; in the assay with Lolium perenne (LOLPE), 0%. In addition, the plant injury at 250 g/ha came out at 40% in assay [3], 60% in assay [4], 10% in assay [5] and 10% in [6].
With `C#CCC1CC(=O)C(c2c(CC)cc(C)cc2CC)C1=O` (stereo not shown) [Compound A25, 2-(2,6-diethyl-4-methyl-phenyl)-4-(prop-2-ynyl)-cyclopentane-1,3-dione], the pest or weed control at 250 g/ha was determined as 100% in [1], 100% in assay [2] and 90% with Lolium perenne (LOLPE). Moreover, the plant injury at 30 g/ha in [3] (application rate 30 g/ha) was found to be 0%; in assay [4] (application rate 30 g/ha), 0%; in assay [5] (application rate 30 g/ha) it was 0%; in assay [6] (application rate 30 g/ha) it was 10%. Also, the plant injury at 125 g/ha in assay [3] came out at 0%; in assay [4], 20%; in [5], 0%; in assay [6], 60%.
